In the NIST ThermoML archive (doi:10.1016/j.jct.2007.07.005):
Numbers after ± are expanded uncertainties.

Assay: xn = mol fraction of the nth substance listed
Details: Fluid (supercritical or subcritical phases), vibrating tube

CCCCCO [pentan-1-ol] + O=C=O
Details | mass density [kg/m3]
313.17 K, 18027 kPa, x2 = 0.6054 | 856.75 ± 0.45
313.17 K, 19070 kPa, x2 = 0.6054 | 858.44 ± 0.45
313.17 K, 20036 kPa, x2 = 0.6054 | 859.99 ± 0.45
313.17 K, 21030 kPa, x2 = 0.6054 | 861.55 ± 0.46
313.17 K, 22042 kPa, x2 = 0.6054 | 863.12 ± 0.46
313.17 K, 23036 kPa, x2 = 0.6054 | 864.64 ± 0.46
313.17 K, 24020 kPa, x2 = 0.6054 | 866.12 ± 0.46
313.17 K, 25040 kPa, x2 = 0.6054 | 867.64 ± 0.46
322.89 K, 520 kPa, x2 = 0 | 792.06 ± 0.43
322.89 K, 1010 kPa, x2 = 0 | 792.47 ± 0.43
322.89 K, 2005 kPa, x2 = 0 | 793.27 ± 0.43
322.89 K, 3007 kPa, x2 = 0 | 794.07 ± 0.44
322.89 K, 4005 kPa, x2 = 0 | 794.86 ± 0.44
322.89 K, 5018 kPa, x2 = 0 | 795.63 ± 0.44
322.89 K, 6001 kPa, x2 = 0 | 796.42 ± 0.44
322.89 K, 7016 kPa, x2 = 0 | 797.2 ± 0.44
322.89 K, 8020 kPa, x2 = 0 | 797.97 ± 0.44
322.89 K, 8997 kPa, x2 = 0 | 798.71 ± 0.44
322.89 K, 10001 kPa, x2 = 0 | 799.47 ± 0.44
322.89 K, 11005 kPa, x2 = 0 | 800.21 ± 0.44
322.89 K, 11996 kPa, x2 = 0 | 800.95 ± 0.44
322.89 K, 13002 kPa, x2 = 0 | 801.68 ± 0.44
322.89 K, 14013 kPa, x2 = 0 | 802.4 ± 0.44
322.89 K, 15005 kPa, x2 = 0 | 803.11 ± 0.44
322.89 K, 16014 kPa, x2 = 0 | 803.82 ± 0.45
322.89 K, 17001 kPa, x2 = 0 | 804.51 ± 0.45
322.89 K, 18016 kPa, x2 = 0 | 805.21 ± 0.45
322.89 K, 19012 kPa, x2 = 0 | 805.89 ± 0.45
322.89 K, 19992 kPa, x2 = 0 | 806.56 ± 0.45
322.89 K, 21036 kPa, x2 = 0 | 807.26 ± 0.45
322.89 K, 22003 kPa, x2 = 0 | 807.92 ± 0.45
322.89 K, 23024 kPa, x2 = 0 | 808.61 ± 0.45
322.89 K, 23994 kPa, x2 = 0 | 809.26 ± 0.45
322.89 K, 25023 kPa, x2 = 0 | 810 ± 0.45
323.05 K, 3011 kPa, x2 = 0.0816 | 797.79 ± 0.44
323.05 K, 4020 kPa, x2 = 0.0816 | 798.67 ± 0.44
323.05 K, 5030 kPa, x2 = 0.0816 | 799.53 ± 0.44
323.05 K, 6018 kPa, x2 = 0.0816 | 800.37 ± 0.44
323.05 K, 7017 kPa, x2 = 0.3624 | 815.3 ± 0.44
323.05 K, 7023 kPa, x2 = 0.0816 | 801.2 ± 0.44
323.05 K, 8013 kPa, x2 = 0.0816 | 802.02 ± 0.44
323.05 K, 8029 kPa, x2 = 0.4651 | 820.04 ± 0.44
323.05 K, 8051 kPa, x2 = 0.3624 | 816.51 ± 0.44
323.05 K, 9009 kPa, x2 = 0.4651 | 821.63 ± 0.44
323.05 K, 9023 kPa, x2 = 0.0816 | 802.84 ± 0.44
323.05 K, 9034 kPa, x2 = 0.3624 | 817.64 ± 0.44
323.05 K, 9991 kPa, x2 = 0.4651 | 823.23 ± 0.44
323.05 K, 10026 kPa, x2 = 0.0816 | 803.67 ± 0.44
323.05 K, 10029 kPa, x2 = 0.3624 | 818.77 ± 0.44
323.05 K, 11006 kPa, x2 = 0.0816 | 804.46 ± 0.44
323.05 K, 11012 kPa, x2 = 0.4651 | 824.81 ± 0.44
323.05 K, 11015 kPa, x2 = 0.8067 | 800.23 ± 0.54
323.05 K, 11022 kPa, x2 = 0.3624 | 819.83 ± 0.44
323.05 K, 11033 kPa, x2 = 0.9757 | 625.72 ± 1.2
323.05 K, 11992 kPa, x2 = 0.0816 | 805.23 ± 0.44
323.05 K, 11993 kPa, x2 = 0.4651 | 826.28 ± 0.45
323.05 K, 11995 kPa, x2 = 0.9757 | 668.32 ± 0.99
323.05 K, 12003 kPa, x2 = 0.3624 | 820.86 ± 0.44
323.05 K, 12032 kPa, x2 = 0.8067 | 808.05 ± 0.5
323.05 K, 13015 kPa, x2 = 0.3624 | 821.9 ± 0.44
323.05 K, 13017 kPa, x2 = 0.9757 | 699.41 ± 0.87
323.05 K, 13024 kPa, x2 = 0.4651 | 827.83 ± 0.45
